Test results: patent US6683079B2, “3-(amino-or aminoalkyl) pyridinone derivatives and their use for the treatment of HIV related diseases” (Centre National de la Recherche Scientifique, priority 1998, dated 2004)

Columns and labels:
[1] = system: HIV-1 strain 103 N; test: Retrovirucidal effect on HIV-1 strain 103 N (Table 3); assay type: cell-based; conditions: HIV-1 strain 103N (RT Lys-103 to Asn mutant); pIC50=-log IC50, IC50 in M
Protocol: HIV-1 viral suspensions were obtained by coculture of MT4 cells and H9 cells chronically infected by HIV-ILai isolate. 200 μl of a cell supernatant containing viral particles (HIV-ILai: 100 TCID50) were incubated at room temperature with various concentrations of different inhibitors. After 3 hours, virions were washed through 0.02 μm anopore membrane in 1.5 mL Vectaspin tube (Whatman) for 10 minutes at 5 000 g. Each of the three subsequent washes was performed in the same conditions after the viral concentrate was refilled with 500 μL of RPMI medium. Then, the viral concentrate was readjusted to the initial volume with RPMI plus 10% foetal calf serum (FCS). The residual infectivity was assayed on P4 cells as described by CHARNEAU et al. (1994, J. Mol. Biol., 241, 651-662). Briefly, P4 cells were plated using 100 μL of DMEM medium plus 10% FCS in 96 plate multi-wells at 20×10^5 cells per mL. After overnight incubation at 37° C., the supernatant was discarded and the viral preparation (200 μL) was added. One day later the wells were washed three times in PBS. Each well was refilled with 200 μL of a reaction buffer containing 50 mM Tris-HCl pH 8.5, 100 mM 2-mercaptoethanol, 0.05% Triton X-100 and 5 mM 4-methylumbelliferyl β-D-galactopyranoside (MUG). After 3 hours at 37° C., the level of the reaction was measured in a fluorescence microplate reader.
The retrovirucidal effect of each pyridinone derivative listed in table 3 has been assayed according to the teachings of example 2, excepted that the anti-viral effect has been tested on the two following HIV-1 strains:
b) HIV-1 strain 103 N which is a mutant strain bearing a point mutation in the reverse transcriptase gene leading to an enzyme wherein the initial Lys-103 residue is replaced for a Asn residue.
The HIV-1 103 N strain has also been described by SAHLBERG et al.,(1998, Antiviral Res., 37 (3): ASS) and BALZARiNI et al. (1996, Antimicrobial Agents and Chemotherapy, 40 (6): 1454-1466).

[2] = system: HIV-1 strain IIIB; test: Retrovirucidal effect on HIV-1 strain IIIB (Table 3); assay type: cell-based; conditions: pIC50=-log IC50, IC50 in M
Outline: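 Virus (100 TCID50 HIV-1 in cell supernatant) exposed to compound 3 h at room temperature, then washed free of compound by membrane filtration. Residual infectivity measured on P4 cells after one day as β-galactosidase activity with MUG substrate (3 h, 37° C), read by fluorescence.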

Structure (SMILES) | HIV1 pIC50 strain 103N [1] | HIV1 pIC50 strain IIIB [2]
CCc1c(C)[nH]c(=O)c(N(C)C)c1Cc1cccc(C(F)(F)F)c1 [Compound 57] | 6.414 | 8.086
CCc1c(C)[nH]c(=O)c(N)c1CNCc1cccc(C)c1 [Compound 83] | <4 | <4.033
Cc1cc(C)cc(Cc2cc(C)[nH]c(=O)c2N(C)C)c1 [Compound 101] | 4.25 | 6.341
CCCN(CCC)c1c(Cc2cc(C)cc(C)c2)c(CC)c(C)[nH]c1=O [Compound 17] | 4.379 | 6.285
CCc1c(C)[nH]c(=O)c(N(C)CCCCCO)c1Cc1cccc(C)c1 [Compound 154] | 6.262 | 8.009
CCc1c(C)[nH]c(=O)c(N(C)C)c1COc1cccc(C)c1 [Compound 162] | 5.026 | 6.418
CCc1c(C)[nH]c(=O)c(N(C)C)c1CNc1cccc(C)c1 [Compound 163] | 4.236 | 5.596
Cc1cccc(C(=O)c2c(C)c(C)[nH]c(=O)c2N(C)C)c1 [Compound 96] | 6.37 | 7.824
CCc1c(C)[nH]c(=O)c(N)c1Cc1ccnc2ccccc12 [Compound 74] | <4 | <4
CCc1c(C)[nH]c(=O)c(N)c1Cc1cc(C)cc(C)c1 [Compound 5] | 5.636 | 6.261
CCCc1[nH]c(=O)c(N(C)C)c(Cc2cc(C)cc(C)c2)c1C [Compound 63] | 6.334 | 7.029
CCCCN(CCCC)c1c(Cc2cc(C)cc(C)c2)c(CC)c(C)[nH]c1=O [Compound 24] | <4 | 4.262
CCc1c(C)[nH]c(=O)c(N(C)C)c1Sc1cccc(C)c1 [Compound 160] | 7.177 | 8.678
CCc1c(C)[nH]c(=O)c(N(Cc2ccccc2)Cc2ccccc2)c1Cc1cc(C)cc(C)c1 [Compound 25] | 4.259 | <4
CCc1c(Cc2cc(C)cc(C)c2)c(N(C)C)c(=O)n(Cc2ccccc2)c1C [Compound 22] | <4 | 4.603
CCc1c(C)[nH]c(=O)c(N(C)C)c1Cc1cccc(Cl)c1 [Compound 40] | 7.412 | 8.585
CCc1c(C)[nH]c(=O)c(N(C)C)c1Cc1ccc(-c2ccccc2)cc1 [Compound 51] | <5 | 5.384
CCc1c(C)[nH]c(=O)c(N2CCCCC2)c1Cc1cc(C)cc(C)c1 [Compound 30] | 4.224 | 6.214
CCc1c(C)[nH]c(=O)c(NC)c1C(=O)c1cccc(Br)c1 [Compound 179] | 7.182 | 8.42
CCc1c(C)[nH]c(=O)c(N(C)C)c1Cc1cc(F)cc(F)c1 [Compound 38] | 7.402 | 8.155
CCc1c(C)[nH]c(=O)c(N(C)CCOC)c1Cc1cccc(C)c1 [Compound 136] | 6.996 | 9
CCc1c(C)[nH]c(=O)c(N(C)C)c1CNc1ccc(C#N)cc1 [Compound 167] | 5.828 | 6.338

Structure (SMILES) | HIV1 pIC50 strain 103N [1] | HIV1 pIC50 strain IIIB [2]
CCCN(C)c1c(Cc2cc(C)cc(C)c2)c(CC)c(C)[nH]c1=O [Compound 47] | 6.968 | 7.767
CCc1c(C)[nH]c(=O)c(N(C)C)c1C(=O)c1cccc(Br)c1 [Compound 174] | 7.68 | 8.921
CCc1c(C)[nH]c(=O)c(N(C)C)c1Cc1ccc(C)cc1C [Compound 34] | <4 | 5.019
CCc1c(C)[nH]c(=O)c(N(C)CC=C(C)C)c1Cc1cccc(C)c1 [Compound 164] | 6.505 | 7.818
CCNc1c(Cc2cc(C)cc(C)c2)c(CC)c(C)[nH]c1=O [Compound 81] | 6.444 | 7.866
CCc1c(C)[nH]c(=O)c(NC)c1Cc1cc(C)cc(C)c1 [Compound 46] | 7.034 | 8.119
CCc1c(C)[nH]c(=O)c(N(C)C)c1Cc1ccccc1 [Compound 21] | 6.65 | 8.409
CCc1c(C)[nH]c(=O)c(N(C)C)c1Cc1cccc(OC)c1 [Compound 121] | 6.948 | 8.469
CCc1c(C)[nH]c(=O)c(N)c1Cc1nccn1C [Compound 84] | <4 | <4
CCc1c(C)[nH]c(=O)c(N(C)C)c1Cc1cccc(C)c1 [Compound 13] | 7.622 | 8.824
Cc1cc(C)cc(Cc2c3c([nH]c(=O)c2N)CCCC3)c1 [Compound 172] | 4.903 | 6.419
CCc1c(C)[nH]c(=O)c(N(C)CCCSC)c1Cc1cc(C)cc(C)c1 [Compound 61] | 5.922 | 7.693
CCc1c(C)[nH]c(=O)c(N(C)C)c1C(=O)c1cccs1 [Compound 178] | 6.461 | 7.873
CCc1c(C)[nH]c(=O)c(N(C)C)c1Cc1ccccc1C [Compound 14] | 5.849 | 7.676
CCc1c(Cc2cc(C)cc(C)c2)c(N(C)C)c(=O)n(CC)c1C [Compound 45] | 4.095 | 5.519
CCc1c(C)[nH]c(=O)c(N(C)C)c1Cc1ccnc2ccccc12 [Compound 75] | 4.132 | 5.252
CCc1c(C)[nH]c(=O)c(N(C)CC)c1Cc1cc(C)cc(C)c1 [Compound 56] | 7.11 | 8.194
CCc1c(C)[nH]c(=O)c(N(C)C)c1Cc1cccc(C)c1C [Compound 20] | 5.585 | 6.926
CCc1c(Cc2cc(C)cc(C)c2)c(N(C)C)c(=O)n(C)c1C [Compound 11] | 6.094 | 7.215
Cc1cc(C)cc(Cc2cc(C)[nH]c(=O)c2N)c1 [Compound 100] | <4 | 4.871
CCc1c(C)[nH]c(=O)c(N(C)C)c1Cc1ccc(C(F)(F)F)cc1 [Compound 53] | <5 | 5.828
CCc1c(C)[nH]c(=O)c(N2CCOCC2)c1Cc1cc(C)cc(C)c1 [Compound 36] | <4 | 6.763
